From doi:10.1101/538157v1 (biorxiv, 2019)

What was measured:
[1] = biological target: T1, CAMKK2-KD (kinase domain of CAMKK2) (Homo sapiens, UniProt Q96RR4); experiment: biochemical; conditions: read-out: ΔTm (°C) 96-well
[2] = biological target: T1, CAMKK2-KD (kinase domain of CAMKK2); experiment: isothermal titration calorimetry; assay type: binding

T1 sequence (Q96RR4 161-449): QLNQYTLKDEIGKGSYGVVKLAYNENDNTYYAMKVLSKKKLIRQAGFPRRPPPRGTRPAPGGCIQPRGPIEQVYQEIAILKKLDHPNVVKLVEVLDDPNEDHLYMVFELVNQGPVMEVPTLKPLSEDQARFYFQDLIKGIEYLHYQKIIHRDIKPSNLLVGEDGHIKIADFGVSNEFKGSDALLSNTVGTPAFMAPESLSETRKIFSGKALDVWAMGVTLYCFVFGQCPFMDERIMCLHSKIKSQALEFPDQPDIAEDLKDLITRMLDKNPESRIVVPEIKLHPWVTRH

SMILES	ΔTm at 12 µM [1] [°C]	Kd [2] [nM]
COc1cc(N2CCC(N(C)C)CC2)ccc1Nc1ncc(Cl)c(Nc2ccccc2P(C)(C)=O)n1 [ALK-IN-1]	–	5.8
CC[C@@H]1C(=O)N(C)c2cnc(Nc3ccc(C(=O)N[C@H]4CC[C@H](N5CCN(CC6CC6)CC5)CC4)cc3OC)nc2N1C(C)C [BI 6727]	–	8.1
COc1cc2c(Nc3cc(Cl)c(OC)c(Cl)c3)c(C#N)cnc2cc1OCCCN1CCN(C)CC1 [Bosutinib isomer]	4.1	–

Next, values leading:

ΔTm at 12 µM [1] [°C]	Kd [2] [nM]	SMILES
7.5	–	c1ccc(-c2cnc(Nc3ccc(OCCN4CCCC4)cc3)s2)cc1 [Flt3 Inhibitor III]
9.4	–	Cn1cc(/C=C2\C(=O)Nc3ccc(S(N)(=O)=O)cc32)c2ccccc21 [Syk Inhibitor]
4.7	–	CC(C)(C)c1nc2c3cc[nH]c(=O)c3c3cc(F)ccc3c2[nH]1 [JAK Inhibitor I]
